Test results published in patent US20030186434A1, “Method of forming vertebrate pancreas in vitro” (priority 2002, published 2003).

Test system: blastopore upper lip of early gastrula of a Xenopus
Experiment: Tissue differentiation of blastopore upper lip treated with retinoic acid for three hours, light microscopy
Conditions: treated 3 hours, cultured 10 days

CC1=C(/C=C/C(C)=C/C=C/C(C)=C/C(=O)O)C(C)(C)CCC1 [Retinoic acid, retinoic acid]
Coelomic epithelium differentiated, specimens (%) (10^−4 M, 35 specimens): 5 (14) | Ear vesicle differentiated, specimens (%) (10^−4 M, 35 specimens): 0 (0) | Epidermis differentiated, specimens (%) (10^−4 M, 35 specimens): 8 (23) | Eye or its fragments differentiated, specimens (%) (10^−4 M, 35 specimens): 0 (0) | Gastric gland differentiated, specimens (%) (10^−4 M, 35 specimens): 0 (0) | Hemocyte differentiated, specimens (%) (10^−4 M, 35 specimens): 0 (0) | Intestinal epithelium differentiated, specimens (%) (10^−4 M, 35 specimens): 34 (97) | Mesenchyme differentiated, specimens (%) (10^−4 M, 35 specimens): 32 (91) | Muscle differentiated, specimens (%) (10^−4 M, 35 specimens): 7 (20) | Neural tissue differentiated, specimens (%) (10^−4 M, 35 specimens): 0 (0) | Notochord differentiated, specimens (%) (10^−4 M, 35 specimens): 33 (94) | Pancreas differentiated, specimens (%) (10^−4 M, 35 specimens): 25 (71) | Pharyngeal epithelium differentiated, specimens (%) (10^−4 M, 35 specimens): 21 (60) | Pronephros differentiated, specimens (%) (10^−4 M, 35 specimens): 0 (0) | Yolk-rich cell differentiated, specimens (%) (10^−4 M, 35 specimens): 29 (83) | Atypical epidermis differentiated, specimens (%) (10^−5 M, 35 specimens): 0 (0) | Cartilage differentiated, specimens (%) (10^−5 M, 35 specimens): 3 (9) | Cement gland differentiated, specimens (%) (10^−5 M, 35 specimens): 0 (0) | Coelomic epithelium differentiated, specimens (%) (10^−5 M, 35 specimens): 5 (14) | Ear vesicle differentiated, specimens (%) (10^−5 M, 35 specimens): 0 (0) | Epidermis differentiated, specimens (%) (10^−5 M, 35 specimens): 13 (37) | Eye or its fragments differentiated, specimens (%) (10^−5 M, 35 specimens): 0 (0) | Gastric gland differentiated, specimens (%) (10^−5 M, 35 specimens): 9 (26) | Hemocyte differentiated, specimens (%) (10^−5 M, 35 specimens): 0 (0) | Intestinal epithelium differentiated, specimens (%) (10^−5 M, 35 specimens): 33 (94) | Mesenchyme differentiated, specimens (%) (10^−5 M, 35 specimens): 20 (57) | Muscle differentiated, specimens (%) (10^−5 M, 35 specimens): 4 (11) | Neural tissue differentiated, specimens (%) (10^−5 M, 35 specimens): 1 (3) | Notochord differentiated, specimens (%) (10^−5 M, 35 specimens): 25 (71) | Pancreas differentiated, specimens (%) (10^−5 M, 35 specimens): 15 (43) | Pharyngeal epithelium differentiated, specimens (%) (10^−5 M, 35 specimens): 19 (54) | Pronephros differentiated, specimens (%) (10^−5 M, 35 specimens): 12 (34) | Yolk-rich cell differentiated, specimens (%) (10^−5 M, 35 specimens): 30 (86) | Atypical epidermis differentiated, specimens (%) (10^−6 M, 35 specimens): 0 (0) | Cartilage differentiated, specimens (%) (10^−6 M, 35 specimens): 22 (63) | Cement gland differentiated, specimens (%) (10^−6 M, 35 specimens): 0 (0) | Coelomic epithelium differentiated, specimens (%) (10^−6 M, 35 specimens): 12 (34) | Ear vesicle differentiated, specimens (%) (10^−6 M, 35 specimens): 0 (0) | Epidermis differentiated, specimens (%) (10^−6 M, 35 specimens): 34 (97) | Eye or its fragments differentiated, specimens (%) (10^−6 M, 35 specimens): 0 (0) | Gastric gland differentiated, specimens (%) (10^−6 M, 35 specimens): 1 (3) | Hemocyte differentiated, specimens (%) (10^−6 M, 35 specimens): 0 (0) | Intestinal epithelium differentiated, specimens (%) (10^−6 M, 35 specimens): 4 (11) | Mesenchyme differentiated, specimens (%) (10^−6 M, 35 specimens): 35 (100) | Muscle differentiated, specimens (%) (10^−6 M, 35 specimens): 20 (57) | Neural tissue differentiated, specimens (%) (10^−6 M, 35 specimens): 15 (43) | Notochord differentiated, specimens (%) (10^−6 M, 35 specimens): 30 (86) | Pancreas differentiated, specimens (%) (10^−6 M, 35 specimens): 1 (3) | Pharyngeal epithelium differentiated, specimens (%) (10^−6 M, 35 specimens): 34 (97) | Pronephros differentiated, specimens (%) (10^−6 M, 35 specimens): 0 (0) | Yolk-rich cell differentiated, specimens (%) (10^−6 M, 35 specimens): 31 (89) | Atypical epidermis differentiated, specimens (%) (10^−7 M, 32 specimens): 0 (0) | Cartilage differentiated, specimens (%) (10^−7 M, 32 specimens): 16 (50) | Cement gland differentiated, specimens (%) (10^−7 M, 32 specimens): 0 (0) | Coelomic epithelium differentiated, specimens (%) (10^−7 M, 32 specimens): 5 (16) | Ear vesicle differentiated, specimens (%) (10^−7 M, 32 specimens): 0 (0) | Epidermis differentiated, specimens (%) (10^−7 M, 32 specimens): 31 (97) | Eye or its fragments differentiated, specimens (%) (10^−7 M, 32 specimens): 0 (0) | Gastric gland differentiated, specimens (%) (10^−7 M, 32 specimens): 0 (0) | Hemocyte differentiated, specimens (%) (10^−7 M, 32 specimens): 0 (0) | Intestinal epithelium differentiated, specimens (%) (10^−7 M, 32 specimens): 1 (3) | Mesenchyme differentiated, specimens (%) (10^−7 M, 32 specimens): 32 (100) | Muscle differentiated, specimens (%) (10^−7 M, 32 specimens): 24 (75) | Neural tissue differentiated, specimens (%) (10^−7 M, 32 specimens): 9 (28) | Notochord differentiated, specimens (%) (10^−7 M, 32 specimens): 31 (97) | Pancreas differentiated, specimens (%) (10^−7 M, 32 specimens): 0 (0) | Pharyngeal epithelium differentiated, specimens (%) (10^−7 M, 32 specimens): 30 (94) | Pronephros differentiated, specimens (%) (10^−7 M, 32 specimens): 0 (0) | Yolk-rich cell differentiated, specimens (%) (10^−7 M, 32 specimens): 24 (75) | Atypical epidermis differentiated, specimens (%) (10^−8 M, 20 specimens): 0 (0) | Cartilage differentiated, specimens (%) (10^−8 M, 20 specimens): 5 (25) | Cement gland differentiated, specimens (%) (10^−8 M, 20 specimens): 0 (0) | Coelomic epithelium differentiated, specimens (%) (10^−8 M, 20 specimens): 3 (15) | Ear vesicle differentiated, specimens (%) (10^−8 M, 20 specimens): 0 (0) | Epidermis differentiated, specimens (%) (10^−8 M, 20 specimens): 20 (100) | Eye or its fragments differentiated, specimens (%) (10^−8 M, 20 specimens): 0 (0) | Gastric gland differentiated, specimens (%) (10^−8 M, 20 specimens): 0 (0) | Hemocyte differentiated, specimens (%) (10^−8 M, 20 specimens): 0 (0) | Intestinal epithelium differentiated, specimens (%) (10^−8 M, 20 specimens): 0 (0) | Mesenchyme differentiated, specimens (%) (10^−8 M, 20 specimens): 20 (100) | Muscle differentiated, specimens (%) (10^−8 M, 20 specimens): 17 (85) | Neural tissue differentiated, specimens (%) (10^−8 M, 20 specimens): 2 (10) | Notochord differentiated, specimens (%) (10^−8 M, 20 specimens): 18 (90) | Pancreas differentiated, specimens (%) (10^−8 M, 20 specimens): 2 (10) | Pharyngeal epithelium differentiated, specimens (%) (10^−8 M, 20 specimens): 17 (85) | Pronephros differentiated, specimens (%) (10^−8 M, 20 specimens): 0 (0) | Yolk-rich cell differentiated, specimens (%) (10^−8 M, 20 specimens): 16 (80)
